In publication PMC7954794, “Protein context shapes the specificity of SH3 domain-mediated interactions in vivo” (Nature Communications, 2021):

Test system: growth of yeast strains under 51 stress conditions
Test: Growth assays in 51 stress conditions (Fig. 1E-F, S2D, S5B)
Format: cell-based, Saccharomyces cerevisiae
Set-up: key to Growth (Fig. S2D) / growth of ABP1 SH3-swapped strains in stress condition: log2 colony size, average of median per strain (growth score)
Conditions: ABP1 SH3-swapped strains
Method: All WT, SH3-deleted, KO (except for CDC25 which is the only essential SH3-containing gene in yeast), ABP1 SH3-swapped, and SLA1 SH3-shuffled strains were grown on omnitrays in 1536 formats and robotically manipulated with a pin tool (the DHFR F[1,2] bait strains were used except for the KO strains). Each strain was randomly positioned in 6 replicates per plate and two plates per condition were performed, for 12 replicates per strain in total. A border of two rows and two columns of WT strains (BY4741) around the plate was used to remove border effects. Strains were grown on YPD media for two days at 30 °C. They were then replicated on 51 different media that are described in the Supplementary Table 3 and were incubated at 37 °C in a spImager custom platform with images acquired every two hours for four days. The colony sizes from plate pictures were also measured with the R package “Gitter” and the output was manually inspected. Positions with an abnormality in colony circularity were removed. The colony sizes after 74 h of incubation at 37 °C were log2 transformed and used for the analyses. First, the differences between the two plate replicates were corrected to remove plate effects. The median colony size was calculated for each strain per plate. Strains with a difference in their median colony size of more than two between the two plate replicates were removed. Finally, the average of the median colony size was calculated for each strain per condition (growth score).

## CDC25
Bathophenanthroline.0.1uM
  Growth (Fig. S2D): 10.8311
Bathophenanthroline.10uM
  Growth (Fig. S2D): 10.71
Bathophenanthroline.1uM
  Growth (Fig. S2D): 10.807
CaCl2.100mM
  Growth (Fig. S2D): 10.8749
CaCl2.250mM
  Growth (Fig. S2D): 10.774
CaCl2.500mM
  Growth (Fig. S2D): 10.2891
Caffein.10mM
  Growth (Fig. S2D): 10.1016
Caffein.2mM
  Growth (Fig. S2D): 11.0786
CdCl2.100uM
  Growth (Fig. S2D): 9.608
CdCl2.10uM
  Growth (Fig. S2D): 10.8752
CdCl2.50uM
  Growth (Fig. S2D): 9.913
CuSO4.1mM
  Growth (Fig. S2D): 10.4484
CuSO4.5mM
  Growth (Fig. S2D): 7.922
Cycloheximide.0.05.uM
  Growth (Fig. S2D): 11.0566
Cycloheximide.0.2.uM
  Growth (Fig. S2D): 10.636
Cycloheximide.0.5.uM
  Growth (Fig. S2D): 10.117
DMSO.2.
  Growth (Fig. S2D): 11.0377
DMSO.6.
  Growth (Fig. S2D): 9.934
DMSO.8.
  Growth (Fig. S2D): 9.291
Ethanol.2.
  Growth (Fig. S2D): 10.7941
Ethanol.6.
  Growth (Fig. S2D): 10.2979
Ethanol.8.
  Growth (Fig. S2D): 10.0965
Galactose.2.
  Growth (Fig. S2D): 10.7721
Glycerol.2.
  Growth (Fig. S2D): 9.727
Hydroxyurea.25mM
  Growth (Fig. S2D): 10.7845
Hygromycin.190uM
  Growth (Fig. S2D): 10.9998
Hygromycin.19uM
  Growth (Fig. S2D): 11.0292
Hygromycin.95uM
  Growth (Fig. S2D): 11.0306
MMS.0.004.
  Growth (Fig. S2D): 10.9713
MMS.0.02.
  Growth (Fig. S2D): 10.7211
MMS.0.04.
  Growth (Fig. S2D): 9.98
Menadione.100uM
  Growth (Fig. S2D): 10.5959
Menadione.200uM
  Growth (Fig. S2D): 10.4955
Menadione.50uM
  Growth (Fig. S2D): 10.8366
NaCl.0.25M
  Growth (Fig. S2D): 10.7898
NaCl.1M
  Growth (Fig. S2D): 9.773
Nitroquinoline.10uM
  Growth (Fig. S2D): 10.6639
Nitroquinoline.50uM
  Growth (Fig. S2D): 10.6019
Nystatin.0.01uM
  Growth (Fig. S2D): 11.0504
Nystatin.0.1uM
  Growth (Fig. S2D): 11.1
Raffinose.2.
  Growth (Fig. S2D): 11.0411
Rapamycin.10nM
  Growth (Fig. S2D): 9.922
Rapamycin.50nM
  Growth (Fig. S2D): 9.425
SC.pH3
  Growth (Fig. S2D): 10.4587
SC.pH6
  Growth (Fig. S2D): 11.0388
SDS.0.01.
  Growth (Fig. S2D): 11.0329
SDS.0.02.
  Growth (Fig. S2D): 11.0194
SDS.0.05.
  Growth (Fig. S2D): 10.8768
Sorbitol.10mM
  Growth (Fig. S2D): 11.0003
Sorbitol.1mM
  Growth (Fig. S2D): 11.0466
Sorbitol.5mM
  Growth (Fig. S2D): 10.9359
